Experimental data from article PMC6120666 (The EMBO Journal, 2018).

What was measured:
[1] = target: T1, XIAP BIR2 - RIPK2 interaction (Homo sapiens, UniProt O43353); assay: GST-BIR2-XIAP pulldown of RIPK2; type: binding; conditions: U2OS/NOD2 lysates; inhibitors at 100-fold IC50 of RIPK2 kinase activity
T1 construct: U2OS/NOD2 cells were lysed in TBS lysis buffer; endogenous in cells; host or cells: U2OS/NOD2 cell lysate (RIPK2); E. coli BL21 (GST-BIR2-XIAP)
Method: (§1) For co‐immunoprecipitation of HA‐XIAP with RIPK2, transfected and treated cells were lysed in TBS buffer containing 0.5% NP‐40, cOmplete and PhosSTOP inhibitors (Roche) and the lysate was cleared by centrifugation. The lysates were incubated with anti‐HA‐agarose overnight, washed 3× with lysis buffer, and analyzed by immunoblotting. For GST pulldown experiments, U2OS/NOD2 cells were lysed in TBS lysis buffer containing 0.5% NP‐40, cOmplete and PhosSTOP inhibitors (Roche). Cleared lysates were pretreated with kinase inhibitors or DMSO and incubated with GST‐XIAP‐BIR2 bound to Glutathione Sepharose at 4°C overnight. Bound material was washed 3× with lysis buffer or PBS, eluted with 15 mM Glutathione in PBS, and analyzed by immunoblotting. […] The bound material was eluted and analyzed as described above.
(§2) For coimmunoprecipitation of HA-XIAP with RIPK2, transfected and treated cells were lysed in TBS buffer containing 0.5% NP-40, cOmplete and PhosSTOP inhibitors (Roche) and the lysate was cleared by centrifugation. The lysates were incubated with anti-HA-agarose overnight, washed 3x with lysis buffer and analyzed by immunoblotting. For GST pull-down experiments, U2OS/NOD2 were lysed in TBS lysis buffer containing 0.5% NP-40, cOmplete and PhosSTOP inhibitors (Roche).
Cleared lysates were pretreated with kinase inhibitors or DMSO and incubated with GST-XIAP-BIR2 bound to Glutathione Sepharose at 4 °C overnight. Bound material was washed 3x with lysis buffer or PBS, eluted with 15 mM Glutathione in PBS and analyzed by immunoblotting. In pull-down […]
inhibitors or DMSO control in PBS were added together with RIPK2 kinase domain to GST-XIAP-BIR2 bound to Glutathione Sepharose. The bound material was eluted and analyzed as described above. […]

[2] = target: T2, NanoLuc-RIPK2 WT and T95W (Homo sapiens, UniProt O43353, T95W); assay: nanoBRET assay in HEK293 cells with SGC-590001 probe; type: binding; conditions: up to more than 100 nM
T2 construct: expressed in transfected cells; host or cells: HEK293 cells
Method: Purified material and lysates were analyzed by immunoblotting. […] Two‐way ANOVA was used to determine statistical significance.
(§3) GST-BIR2-XIAP as indicated. Intensity quantification of SPOTs was performed using ImageJ software
(§4) Dual luciferase reporter assay
(§5) Intracellular flow cytometry of CXCL8
(§6) for cell death) or vehicle for 24h. Viability was determined using the CellTiter-Glo® luminescent cell
(§7) together with Transfection Carrier DNA (Promega).
(§8) After addition of Nano-Glo

U2OS/NOD2 cells = assay: Intracellular flow cytometry of CXCL8 after L18-MDP; type: cell-based, human; conditions: U2OS/NOD2 RIPK2 KO cells reconstituted with T95W gatekeeper mutant; L18-MDP 200 ng/ml, 4 h
Method: Purified material and lysates were analyzed by immunoblotting. […] Numbering below schematic refers to amino acid residues in human RIPK2 and indicate domain boundaries. […] Data information: Data in (A, B, D, H) represent the mean ± SEM of 2–4 independent experiments, each performed in duplicate. […] Two‐way ANOVA was used to determine statistical significance. See also Fig EV1.Source data are available online for this figure.
Dark gray represents areas occupied by RIPK2; white areas indicate empty spaces in CSLP binding pocket. […] Dotted black box indicates region shown for models with CSLP37 and CSLP43. • Molecular docking model of RIPK2 kinase domain in complex with CSLP43 (green) based on RIPK2/CSLP18 structure from (D). […] Two‐way ANOVA was used to determine statistical significance. See also Fig EV2.
as §3, §4, §5, §6, §7, §8

[3] = tested on: RIPK2 ubiquitination in U2OS/NOD2 and THP-1 cells; assay: Purification of Ub-conjugates (TUBE pulldown), RIPK2 ubiquitination; type: cell-based, human
Method: as §1, with “above. […]” for “above.”
PBS, eluted with 15 mM Glutathione in PBS and analyzed by immunoblotting. […]

[4] = target: T3, XIAP-RIPK2 interaction in HEK293FT cells (Homo sapiens, UniProt O43353); assay: Co-immunoprecipitation of HA-XIAP with endogenous RIPK2; type: cell-based; conditions: 200 nM
T3 construct: endogenous RIPK2 from HEK293FT cells; endogenous in cells; host or cells: HEK293FT cells (RIPK2 endogenous; 3xHA-XIAP-F495A transfected)
Method: Purified material and lysates were analyzed by immunoblotting. • Pulldown of RIPK2 from U2OS/NOD2 cell lysates with recombinant GST‐BIR2‐XIAP in the presence of CSLP inhibitors. […] Purified material and lysates were analyzed by immunoblotting. • Pulldown of recombinant RIPK2 kinase domain (dephosphorylated) with recombinant GST‐BIR2‐XIAP in the presence of CSLP inhibitors as indicated. Inhibitors were used at the same concentrations as in (C). Purified material and lysates were analyzed by immunoblotting. • Purification of Ub‐conjugates from THP‐1 cells after treatment with L18‐MDP (200 ng/ml, 1 h) and CSLP inhibitors as indicated. Purified material and lysates were analyzed by immunoblotting. […]
For co‐immunoprecipitation of HA‐XIAP with RIPK2, transfected and treated cells were lysed in TBS buffer containing 0.5% NP‐40, cOmplete and PhosSTOP inhibitors (Roche) and the lysate was cleared by centrifugation. The lysates were incubated with anti‐HA‐agarose overnight, washed 3× with lysis buffer, and analyzed by immunoblotting. […] Bound material was washed 3× with lysis buffer or PBS, eluted with 15 mM Glutathione in PBS, and analyzed by immunoblotting. […] The bound material was eluted and analyzed as described above. […]
(§9) Ubiquitin conjugates were purified from treated cells using GST-1xUBAubq ubiquitin affinity reagent and analyzed by immunoblotting as described (Fiil et al., 2013). […]

GST-BIR2-XIAP [5] = target: T4, GST-BIR2-XIAP (Homo sapiens, UniProt P98170, D214S); assay: SPOT peptide assay; type: binding; conditions: D214S mutant BIR2
T4 construct: XIAP BIR2 domain (aa 124-242) into pGTVL2 vector in frame with N-terminal HIS and GST tags; made in house; host or cells: E. coli (BL21)
Method: (§10) Cellulose‐bound peptide arrays were prepared employing standard Fmoc solid‐phase peptide synthesis using a MultiPep‐RSi‐Spotter (INTAVIS, Köln, Germany) as previously described (Picaud & Filippakopoulos, 2015). The assay was performed using recombinant 6xHIS‐GST‐BIR2 domain of XIAP protein, and bound protein was detected using anti‐His antibody HRP‐conjugated.
as §2, with “For GST pull-down experiments, U2OS/NOD2 were lysed in TBS lysis buffer containing 0.5% NP-40, cOmplete and PhosSTOP inhibitors (Roche).” left out
(§11) Cleared lysates were pretreated with kinase inhibitors or DMSO and incubated with GST-XIAP-BIR2 bound to Glutathione Sepharose at 4 °C overnight. Bound material was washed 3x with lysis buffer or PBS, eluted with 15 mM Glutathione in PBS and analyzed by immunoblotting. […] The bound material was eluted and analyzed as described above.
as §9
(§12) Proteins bound to peptides were detected using anti-His antibody HPR conjugated (diluted 1:15000) and the Pierce® ECL Western blotting Substrate (#32106, Thermo Fisher Scientific). […]

GST-BIR2-XIAP [6] = target: T5, GST-BIR2-XIAP (Homo sapiens, UniProt P98170); assay: SPOT peptide assay; type: binding; conditions: GST-tagged WT BIR2
T5 construct: XIAP BIR2 domain (aa 124-242) into pGTVL2 vector in frame with N-terminal HIS and GST tags; made in house; host or cells: E. coli (BL21)
Method: as §10
as §2, with “For GST pull-down experiments, U2OS/NOD2 were lysed in TBS lysis buffer containing 0.5% NP-40, cOmplete and PhosSTOP inhibitors (Roche).” left out
as §11, §9, §12

Cc1ccc(C(=O)Nc2ccc(CN3CCN(C)CC3)c(C(F)(F)F)c2)cc1C#Cc1cnc2cccnn12 [ponatinib, reference compound]
pulldown of RIPK2 by GST-BIR2-XIAP from cell lysates [1]: interfered
binding to RIPK2 T95W in cells [2]: ablated the binding
inhibition of NOD2 signaling (CXCL8) in cells expressing RIPK2 T95W (U2OS/NOD2 cells): largely abolished the inhibitory effect
ubiquitination of kinase-dead RIPK2 variants after NOD2 stimulation ([3]; U2OS/NOD2 RIPK2 KO cells reconstituted with K47R or D146N): prevented ubiquitination
RIPK2 ubiquitination after L18-MDP ([3]; U2OS/NOD2 or THP-1 cells, L18-MDP 200 ng/ml, 1 h): antagonized
co-immunoprecipitation of endogenous RIPK2 with HA-XIAP [4]: prevented

A-S-G-T-V-S-S-A-R-H-A-D-W-R-V (ASGTVSSARHADWRV) [A13, RIPK2 15-mer SPOT peptide, residues 28-42]
binding of D214S versus WT BIR2 domain to peptide (GST-BIR2-XIAP [5]): reduced
binding of WT XIAP BIR2 domain to peptide (GST-BIR2-XIAP [6]): binds predominantly
